Source: patent US10167262B2, “Herbicidal substituted 3-arylpyrazoles” (FMC CORPORATION, priority 2014, dated 2019)

Columns and labels:
Type in all cases: in vivo
[1] = system: barnyardgrass (Echinochloa crus-galli); test: Test A pre-/postemergence greenhouse herbicide test, visual injury rating 0-100
Outline: (§1)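 Visual injury scored on a 0–100 scale versus untreated controls roughly 10 days after treatment in greenhouse. Treatments were preemergence soil sprays plus postemergence sprays to plants 2–10 cm tall at one- to two-leaf stage, in a surfactant-containing solvent formulation.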

corn (Zea mays) = test: as above
Outline: as §1

[2] = system: giant foxtail (Setaria faberii); test: as above
Outline: as §1

[3] = system: large (Lg) crabgrass (Digitaria sanguinalis); test: as above
Outline: as §1

[4] = system: pigweed (Amaranthus retroflexus); test: as above
Outline: as §1

[5] = system: velvetleaf (Abutilon theophrasti); test: as above
Outline: as §1

[6] = system: wheat (Triticum aestivum); test: as above
Outline: as §1

[7] = system: barnyardgrass (Echinochloa crus-galli); test: Test B flooded paddy test, plant response rating 0-100; conditions: Flood, 250 g ai/ha; scale 0 to 100 (0 no effect, 100 complete control); 13 to 15 days
Text: (§2) At time of treatment, test pots were flooded to 3 cm above the soil surface, treated by application of test compounds directly to the paddy water, and then maintained at that water depth for the duration of the test. Treated plants and controls were maintained in a greenhouse for 13 to 15 days, after which time all species were compared to controls and visually evaluated. […] A dash (-) response means no test result.

[8] = system: ducksalad (Heteranthera limosa); test: as above; conditions: Flood, 250 g ai/ha; scale 0 to 100 (0 no effect, 100 complete control); 13 to 15 days
Text: as §2

rice (Oryza sativa) = test: as above; conditions: Flood, 250 g ai/ha; scale 0 to 100 (0 no effect, 100 complete control); 13 to 15 days
Text: as §2

[9] = system: sedge, umbrella (small-flower umbrella sedge, Cyperus difformis); test: as above; conditions: Flood, 250 g ai/ha; scale 0 to 100 (0 no effect, 100 complete control); 13 to 15 days
Text: as §2

[10] = system: morningglory (Ipomoea spp.); test: Test A pre-/postemergence greenhouse herbicide test, visual injury rating 0-100
Outline: as §1

Structure (SMILES): Cn1cc(C(=O)c2ccccc2)c(-c2cc(F)cc(Cl)c2)n1 [Compound 47]
- Plant response rating (0 to 100 scale), Barnyardgrass ([1]; Postemergence, 1000 g ai/ha): 0
- Plant response rating (0 to 100 scale), Barnyardgrass ([1]; Preemergence, 1000 g ai/ha): 0
- Plant response rating (0 to 100 scale), Corn (corn (Zea mays); Postemergence, 1000 g ai/ha): 0
- Plant response rating (0 to 100 scale), Corn (corn (Zea mays); Preemergence, 1000 g ai/ha): 0
- Plant response rating (0 to 100 scale), Foxtail, Giant ([2]; Postemergence, 1000 g ai/ha): 0
- Plant response rating (0 to 100 scale), Foxtail, Giant ([2]; Preemergence, 1000 g ai/ha): 0
- Plant response rating (0 to 100 scale), Crabgrass, Large ([3]; Postemergence, 1000 g ai/ha): 0
- Plant response rating (0 to 100 scale), Crabgrass, Large ([3]; Preemergence, 1000 g ai/ha): 0
- Plant response rating (0 to 100 scale), Pigweed ([4]; Postemergence, 1000 g ai/ha): 90
- Plant response rating (0 to 100 scale), Pigweed ([4]; Preemergence, 1000 g ai/ha): 80
- Plant response rating (0 to 100 scale), Velvetleaf ([5]; Postemergence, 1000 g ai/ha): 90
- Plant response rating (0 to 100 scale), Velvetleaf ([5]; Preemergence, 1000 g ai/ha): 90
- Plant response rating (0 to 100 scale), Wheat ([6]; Postemergence, 1000 g ai/ha): 0
- Plant response rating (0 to 100 scale), Wheat ([6]; Preemergence, 1000 g ai/ha): 0
- Plant response rating, Barnyardgrass [7]: 0
- Plant response rating, Ducksalad [8]: 0
- Plant response rating, Rice (rice (Oryza sativa)): 0
- Plant response rating, Sedge, Umbrella [9]: 0

Structure (SMILES): O=C(c1cncc(F)c1)c1c[nH]nc1-c1cc(F)cc(F)c1 [Compound 23]
- Plant response rating (0 to 100 scale), Barnyardgrass ([1]; Postemergence, 125 g ai/ha): 0
- Plant response rating (0 to 100 scale), Barnyardgrass ([1]; Postemergence, 500 g ai/ha): 0
- Barnyardgrass plant response rating (0 = no effect, 100 = complete control) ([1]; Preemergence, 125 g ai/ha): 0
- Plant response rating (0 to 100 scale), Barnyardgrass ([1]; Preemergence, 500 g ai/ha): 0
- Plant response rating (0 to 100 scale), Corn (corn (Zea mays); Postemergence, 125 g ai/ha): 0
- Plant response rating (0 to 100 scale), Corn (corn (Zea mays); Postemergence, 500 g ai/ha): 0
- Corn plant response rating (0 = no effect, 100 = complete control) (corn (Zea mays); Preemergence, 125 g ai/ha): 0
- Plant response rating (0 to 100 scale), Corn (corn (Zea mays); Preemergence, 500 g ai/ha): 0
- Plant response rating (0 to 100 scale), Foxtail, Giant ([2]; Postemergence, 125 g ai/ha): 0
- Plant response rating (0 to 100 scale), Foxtail, Giant ([2]; Postemergence, 500 g ai/ha): 0
- Foxtail, Giant plant response rating (0 = no effect, 100 = complete control) ([2]; Preemergence, 125 g ai/ha): 0
- Plant response rating (0 to 100 scale), Foxtail, Giant ([2]; Preemergence, 500 g ai/ha): 0
- Plant response rating (0 to 100 scale), Crabgrass, Large ([3]; Postemergence, 125 g ai/ha): 0
- Plant response rating (0 to 100 scale), Crabgrass, Large ([3]; Postemergence, 500 g ai/ha): 0
- Plant response rating (0 to 100 scale), Crabgrass, Large ([3]; Preemergence, 500 g ai/ha): 0
- Plant response rating (0 to 100 scale), Morningglory ([10]; Postemergence, 125 g ai/ha): 0
- Plant response rating (0 to 100 scale), Morningglory ([10]; Postemergence, 500 g ai/ha): 0
- Morningglory plant response rating (0 = no effect, 100 = complete control) ([10]; Preemergence, 125 g ai/ha): 0
- Plant response rating (0 to 100 scale), Morningglory ([10]; Preemergence, 500 g ai/ha): 0
- Plant response rating (0 to 100 scale), Pigweed ([4]; Postemergence, 125 g ai/ha): 50
- Plant response rating (0 to 100 scale), Pigweed ([4]; Postemergence, 500 g ai/ha): 60
- Pigweed plant response rating (0 = no effect, 100 = complete control) ([4]; Preemergence, 125 g ai/ha): 70
- Plant response rating (0 to 100 scale), Pigweed ([4]; Preemergence, 500 g ai/ha): 100
- Plant response rating (0 to 100 scale), Velvetleaf ([5]; Postemergence, 125 g ai/ha): 0
- Plant response rating (0 to 100 scale), Velvetleaf ([5]; Postemergence, 500 g ai/ha): 40
- Velvetleaf plant response rating (0 = no effect, 100 = complete control) ([5]; Preemergence, 125 g ai/ha): 60
- Plant response rating (0 to 100 scale), Velvetleaf ([5]; Preemergence, 500 g ai/ha): 90
- Plant response rating (0 to 100 scale), Wheat ([6]; Postemergence, 125 g ai/ha): 0
- Plant response rating (0 to 100 scale), Wheat ([6]; Postemergence, 500 g ai/ha): 0
- Wheat plant response rating (0 = no effect, 100 = complete control) ([6]; Preemergence, 125 g ai/ha): 0
- Plant response rating (0 to 100 scale), Wheat ([6]; Preemergence, 500 g ai/ha): 0
- Plant response rating, Barnyardgrass [7]: 0
- Plant response rating, Ducksalad [8]: 0
- Plant response rating, Rice (rice (Oryza sativa)): 0
- Plant response rating, Sedge, Umbrella [9]: 0

Structure (SMILES): CCn1cc(C(=O)c2ccccc2)c(-c2cc(F)cc(Cl)c2)n1 [Compound 46]
- Plant response rating (0 to 100 scale), Barnyardgrass ([1]; Postemergence, 1000 g ai/ha): 0
- Plant response rating (0 to 100 scale), Barnyardgrass ([1]; Preemergence, 1000 g ai/ha): 0
- Plant response rating (0 to 100 scale), Corn (corn (Zea mays); Postemergence, 1000 g ai/ha): 0
- Plant response rating (0 to 100 scale), Corn (corn (Zea mays); Preemergence, 1000 g ai/ha): 0
- Plant response rating (0 to 100 scale), Foxtail, Giant ([2]; Postemergence, 1000 g ai/ha): 0
- Plant response rating (0 to 100 scale), Foxtail, Giant ([2]; Preemergence, 1000 g ai/ha): 0
- Plant response rating (0 to 100 scale), Crabgrass, Large ([3]; Postemergence, 1000 g ai/ha): 0
- Plant response rating (0 to 100 scale), Crabgrass, Large ([3]; Preemergence, 1000 g ai/ha): 0
- Plant response rating (0 to 100 scale), Pigweed ([4]; Postemergence, 1000 g ai/ha): 90
- Plant response rating (0 to 100 scale), Pigweed ([4]; Preemergence, 1000 g ai/ha): 100
- Plant response rating (0 to 100 scale), Velvetleaf ([5]; Postemergence, 1000 g ai/ha): 90
- Plant response rating (0 to 100 scale), Velvetleaf ([5]; Preemergence, 1000 g ai/ha): 90
- Plant response rating (0 to 100 scale), Wheat ([6]; Postemergence, 1000 g ai/ha): 0
- Plant response rating (0 to 100 scale), Wheat ([6]; Preemergence, 1000 g ai/ha): 0
- Plant response rating, Barnyardgrass [7]: 0
- Plant response rating, Ducksalad [8]: 0
- Plant response rating, Rice (rice (Oryza sativa)): 0
- Plant response rating, Sedge, Umbrella [9]: 0
